Experimental data published in patent publication US20220306630A1, “AGONISTS OF ROR GAMMAt” (BRISTOL-MYERS SQUIBB COMPANY, priority 2019, published 2022).

target: T1, RORgT (Homo sapiens, UniProt P51449); test: RORgT Gal4 Luciferase Reporter Gene Assay; assay type: cell-based; conditions: engineered Jurkat cells overexpressing RORgT (LBD or full length) with Gal4 Luc reporter; 18 hours at 37° C.; 40 μM to 0.67 nM; read-out: RORg_GAL4 EC50
T1 construct: Gal4 (fusion partner); expressed in transfected cells; host or cells: engineered Jurkat cells (Jurkat pEx/Gal/hRORγ CLBD/HYG pG5luc/blast)
T1 sequence (P51449 267-516): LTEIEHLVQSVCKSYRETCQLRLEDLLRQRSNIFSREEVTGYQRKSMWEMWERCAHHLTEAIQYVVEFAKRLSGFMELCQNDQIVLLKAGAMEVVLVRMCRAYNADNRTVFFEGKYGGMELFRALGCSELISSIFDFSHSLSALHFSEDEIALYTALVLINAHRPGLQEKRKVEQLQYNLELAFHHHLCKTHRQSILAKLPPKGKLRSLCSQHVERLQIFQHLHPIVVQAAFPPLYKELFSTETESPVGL
Description: The compound and the cells were incubated for 18 hours at 37° C. in a cell culture incubator. Cells were then lysed with 15 uL of Steady-Glo Luciferase Assay reagent (Promega EZ550), followed by centrifuging the assay plates at 1500 RPM for 1 minute. Subsequently, the plates were read on the Envision (PerkinElmer). The inhibition of constitutive activity of RORgT achieved by graded concentrations of compound was calculated as a percentage of the luminescence signal window reduction over a control compound.

Row | SMILES | EC50
1 | COc1ccc(Oc2c(F)cc(NC(=O)Cc3cccnc3)cc2F)cc1C1CC1 [Example 39, N-(4-(3-cyclopropyl-4-methoxyphenoxy)-3,5-difluorophenyl)-2-(pyridin-3-yl)acetamide] | 3130 nM
2 | CCS(=O)(=O)Nc1cc(Cl)c(Oc2ccc(OC)c(C(C)C)c2)c(Cl)c1 [Example 33, N-(3,5-dichloro-4-(3-isopropyl-4-methoxyphenoxy)phenyl)ethanesulfonamide] | 4280 nM
3 | COCCNC(=O)c1ccc(Cl)c(Oc2ccc(OC)c(C(C)C)c2)c1Cl [Example 183] | 284 nM
4 | COc1ccc(Oc2c(Cl)cc(NC(=O)CCn3cncn3)cc2Cl)cc1C(C)C [Example 245] | 1560 nM
5 | COc1ccc(Oc2c(Cl)cc(NC(=N)Cc3cccnc3)cc2Cl)cc1C(C)C [Example 36, N-(3,5-dichloro-4-(3-isopropyl-4-methoxyphenoxy)phenyl)-2-(pyridin-3-yl)acetimidamide] | 455 nM
6 | COc1ccc(Oc2c(Cl)cc(NC(=O)CCC(C)C)cc2Cl)cc1C(C)C [Example 290] | 524 nM
7 | COc1ccc(Oc2c(Cl)ccc(C(=O)N(C)CC3CCN(S(C)(=O)=O)CC3)c2Cl)cc1C(C)C [Example 104] | 15 nM
8 | COc1ccc(Oc2c(Cl)cc(NC(=O)Cc3ccc(N)nc3)cc2Cl)cc1C(C)C [Example 2, 2-(6-aminopyridin-3-yl)-N-(3,5-dichloro-4-(3-isopropyl-4-methoxyphenoxy)phenyl)acetamide] | 152 nM
9 | CCS(=O)(=O)N1CCC(CNC(=O)c2ccc(Cl)c(Oc3ccc(OC)c(C(C)C)c3)c2Cl)CC1 [Example 94] | 26 nM
10 | COc1ccc(Oc2c(Cl)ccc(CN(C)C(=O)c3ccc(S(C)(=O)=O)cc3)c2Cl)cc1C(C)C [Example 22, N-(2,4-dichloro-3-(3-isopropyl-4-methoxyphenoxy)benzyl)-N-methyl-4-(methylsulfonyl)benzamide] | 95 nM
11 | CC(C)c1cc(F)cc(Oc2c(Cl)ccc(CNC(=O)c3ccc(S(N)(=O)=O)cc3)c2Cl)c1 [Example 150] | 8.2 nM
12 | CC(C)c1cc(F)cc(Oc2c(Cl)ccc(C(=O)NCc3cccc(S(C)(=O)=O)c3)c2Cl)c1 [Example 139] | 187 nM
13 | COc1ccc(Oc2c(Cl)cc(NC(=O)CC3CCCN(S(C)(=O)=O)C3)cc2Cl)cc1C(C)C (racemic) [Example 41, N-(3,5-dichloro-4-(3-isopropyl-4-methoxyphenoxy)phenyl)-2-(1-(methylsulfonyl)piperidin-3-yl)acetamide] | 356 nM
14 | COc1ccc(Oc2c(Cl)cc(NC(=O)Cc3cncc(Cl)n3)cc2Cl)cc1C(C)C [Example 239] | 170 nM
15 | COc1ccc(Oc2c(Cl)cc(NC(=O)Cc3cccc(S(C)(=O)=O)c3)cc2Cl)cc1C(C)C [Example 231] | 26 nM
16 | CC1(c2cc(F)cc(Oc3c(Cl)ccc(C(=O)NCc4ccc(S(C)(=O)=O)cc4)c3Cl)c2)CC1 [Example 276] | 5.1 nM
17 | COc1ccc(Oc2c(Cl)ccc(C(=O)N3CC4(CCN(S(C)(=O)=O)CC4)C3)c2Cl)cc1C(C)C [Example 68] | 15 nM
18 | COc1ncc(Oc2c(Cl)ccc(C(=O)NC(C)c3ccc(S(C)(=O)=O)cc3)c2Cl)cc1C(C)C (stereo not drawn) [Example 143] | 11.5 nM
19 | CCCS(=O)(=O)Nc1cc(Cl)c(Oc2ccc(OC)c(C(C)C)c2)c(Cl)c1 [Example 303] | 858 nM
20 | C=C(C)c1cc(Oc2c(Cl)cc(NC(=O)CC3CCN(S(C)(=O)=O)CC3)cc2Cl)cnc1OC [Example 73] | 18 nM

Row | SMILES | EC50
21 | COc1ccc(Oc2c(Cl)ccc(C(=O)N3CCC(c4ccccc4)CC3)c2Cl)cc1C(C)C [Example 176] | 83 nM
22 | CC(C)c1cc(Oc2c(Cl)cc(NC(=O)Cc3cccnc3)cc2Cl)ccc1Cl [Example 265] | 204 nM
23 | COc1ccc(Oc2c(Cl)cc(NC(=O)Cc3cccnc3)cc2Cl)cc1C(C)(C)C [Example 13, N-(4-(3-(tert-butyl)-4-methoxyphenoxy)-3,5-dichlorophenyl)-2-(pyridin-3-yl)acetamide] | 268 nM
24 | COc1ccc(Oc2c(Cl)ccc(C(=O)NCc3ccc(S(=O)(=O)N(C)C)nc3)c2Cl)cc1C(C)C [Example 99] | 153 nM
25 | COc1ccc(Oc2c(Cl)ccc(CNC(=O)c3ccc(S(N)(=O)=O)cc3)c2Cl)cc1C(C)C [Example 60] | 139 nM
26 | COc1ccc(Oc2c(Cl)ccc(C(=O)Nc3cccnc3)c2Cl)cc1C(C)C [Example 202] | 4490 nM
27 | CCS(=O)(=O)NC1CCN(CC(=O)Nc2cc(Cl)c(Oc3ccc(OC)c(C(C)C)c3)c(Cl)c2)CC1 [Example 173] | 265 nM
28 | COc1ncc(Oc2c(Cl)cc(NC(=O)CC3CCN(S(C)(=O)=O)CC3)cc2Cl)cc1C(C)C(F)(F)F (stereo not drawn) [Example 134] | 3.2 nM
29 | COc1ncc(Oc2c(Cl)cc(NC(=O)CC3CCN(S(=O)(=O)C(C)C)CC3)cc2Cl)cc1C(C)C [Example 24, N-(3,5-dichloro-4-((5-isopropyl-6-methoxypyridin-3-yl)oxy)phenyl)-2-(1-(isopropylsulfonyl)piperidin-4-yl)acetamide] | 45 nM
30 | COc1ccc(Oc2c(Cl)cc(NC(=O)CCc3ccccc3)cc2Cl)cc1C(C)C [Example 284] | 40000 nM
31 | COc1ccc(Oc2c(Cl)cc(NC(=O)Cc3cncnc3)cc2Cl)cc1C(C)C [Example 342] | 136 nM
32 | COc1ccc(Oc2c(Cl)ccc(C(=O)NCc3ccc(N(C)C)cc3)c2Cl)cc1C(C)C [Example 195] | 616 nM
33 | COc1ccc(Oc2c(Cl)ccc(C(=O)N3CCOCC3)c2Cl)cc1C(C)C [Example 211] | 46 nM
34 | COc1ncc(Oc2c(Cl)cc(NC(=O)CC3CCN(S(C)(=O)=O)CC3)cc2Cl)cc1C1CC1 [Example 126] | 3.2 nM
35 | CC(C)c1cc(Oc2c(Cl)ccc(C(=O)N3CCC4(CC3)CN(S(C)(=O)=O)C4)c2Cl)ccc1F [Example 132] | 6.3 nM
36 | COc1ccc(Oc2c(Cl)cc(NC(=O)CC#N)cc2Cl)cc1C(C)C [Example 301] | 343 nM
37 | COc1ccc(Oc2c(Cl)cc(NC(=O)CCc3c(C)n[nH]c3C)cc2Cl)cc1C(C)C [Example 249] | 1640 nM
38 | COc1ccc(Oc2c(Cl)ccc(CNC(=O)C3CCN(S(C)(=O)=O)CC3)c2Cl)cc1C(C)C [Example 213] | 19 nM
39 | COc1ccc(Oc2c(Cl)cc(NC(=O)OCC(C)(C)C#N)cc2Cl)cc1C(C)C [Example 233] | 319 nM
40 | CCS(=O)(=O)N1CCC(CC(=O)NCc2ccc(Cl)c(Oc3ccc(OC)c(C(C)C)c3)c2Cl)CC1 [Example 187] | 522 nM

Row | SMILES | EC50
41 | COc1ccc(Oc2c(Cl)cc(NC(=O)C3(c4cccnc4)CCCCC3)cc2Cl)cc1C(C)C [Example 348] | 372 nM
42 | COc1ccc(Oc2c(Cl)cc(NC(=O)CN3CC[C@@H](NS(=O)(=O)C4CC4)C3)cc2Cl)cc1C(C)C [Example 161] | 2330 nM
43 | C=C(c1cc(Oc2c(Cl)cc(NC(=O)CC3CCN(S(C)(=O)=O)CC3)cc2Cl)cnc1OC)C(F)(F)F [Example 133] | 4.6 nM
44 | CC1(c2cc(F)cc(Oc3c(Cl)cc(NC(=O)Cc4ccc(S(C)(=O)=O)cc4)cc3Cl)c2)CC1 [Example 274] | 3.9 nM
45 | CC(C)c1cc(F)cc(Oc2c(Cl)cc(NC(=O)NC3CCCN(S(C)(=O)=O)C3)cc2Cl)c1 (stereo not drawn) [Example 26, 1-(3,5-dichloro-4-(3-fluoro-5-isopropylphenoxy)phenyl)-3-(1-(methylsulfonyl)piperidin-3-yl)urea] | 322 nM
46 | COc1ccc(Oc2c(Cl)cc(NC(=O)C3CCCCC3)cc2Cl)cc1C(C)C [Example 287] | 132 nM
47 | COc1ccc(Oc2c(Cl)ccc(CNC(=O)Cc3ccc(S(C)(=O)=O)cc3)c2Cl)cc1C(C)C [Example 54] | 34 nM
48 | COc1ccc(Oc2c(Cl)cc(NC(=O)c3c[nH]c4ncncc34)cc2Cl)cc1C(C)C [Example 347] | 1820 nM
49 | COc1ccc(Oc2c(Cl)ccc(C(=O)NC(C)c3ccnn3C)c2Cl)cc1C(C)C (stereo not drawn) [Example 217] | 45 nM
50 | COc1ccc(Oc2c(Cl)cc(NC(=O)CN3CCC[C@@H](NS(=O)(=O)C4CC4)C3)cc2Cl)cc1C(C)C [Example 166] | 424 nM
51 | COc1ccc(Oc2c(Cl)cc(NC(=O)Cc3ccc(S(C)(=O)=O)nc3)cc2Cl)cc1C(C)C [Example 3, N-(3,5-dichloro-4-(3-isopropyl-4-methoxyphenoxy)phenyl)-2-(6-(methylsulfonyl) Pyridin-3-yl)acetamide] | 54 nM
52 | CC(C)c1cc(F)cc(Oc2c(Cl)ccc(CNC(=O)C3CCN(S(C)(=O)=O)CC3)c2Cl)c1 [Example 148] | 4 nM
53 | COc1ccc(Oc2c(Cl)ccc(C(=O)N3CCCC3)c2Cl)cc1C(C)C [Example 210] | 105 nM
54 | COc1ccc(Oc2c(Cl)ccc(C(=O)NCc3cc(C)no3)c2Cl)cc1C(C)C [Example 205] | 564 nM
55 | COc1ccc(Oc2c(Cl)ccc(CNC(=O)COC3CCN(S(C)(=O)=O)CC3)c2Cl)cc1C(C)C [Example 188] | 383 nM
56 | CC1(c2cc(F)cc(Oc3c(Cl)cc(NC(=O)Cc4cccc(S(C)(=O)=O)c4)cc3Cl)c2)CC1 [Example 273] | 1.1 nM
57 | COc1ccc(Oc2c(Cl)cc(NC(=O)Cc3cn[nH]c3)cc2Cl)cc1C(C)C [Example 7] | 173 nM
58 | COc1ccc(Oc2c(Cl)ccc(C(=O)N3CCCCC3)c2Cl)cc1C(C)C [Example 184] | 246 nM
59 | CC(C)c1cc(F)cc(Oc2c(Cl)ccc(C(=O)NCc3ccc(S(C)(=O)=O)cc3)c2Cl)c1 [Example 122] | 3.6 nM
60 | COc1ccc(Oc2c(Cl)cc(NC(=O)CC3CCCN(S(=O)(=O)C(C)C)C3)cc2Cl)cc1C(C)C (stereo not drawn) [Example 316] | 943 nM
